Drawing on ChEMBL document CHEMBL1909046, “DrugMatrix in vitro pharmacology data”, this text covers IC50 and Ki for 13 compounds.

Test [1] concerns the target Beta-2 adrenergic receptor (Homo sapiens, UniProt P07550). Nature of the test: DRUGMATRIX: Adrenergic beta2 radioligand binding (ligand: [3H] CGP-12177). It counts as cell membranes, CHO, Membrane. The conditions noted are these: cho; Not Active = under 50% inhibition at 10 µM.
Test [2] deals with Substance-P receptor (Homo sapiens, UniProt P25103). It counts as cell membranes, Membrane. The following applies: cho.
Test [3] addresses D(3) dopamine receptor (Homo sapiens, UniProt P35462). The test can be described thus: DRUGMATRIX: Dopamine D3 radioligand binding (ligand: [3H] Spiperone). It counts as cell membranes, CHO, Membrane. The conditions noted are these: for Ki: read-out: Ki.
Test [4] can be described thus: DRUGMATRIX: Sodium/nucleoside co-transporter radioligand binding (ligand: nitrobenzylthioinosine). It counts as cell membranes, Cavia porcellus, Dunkin-Hartley, Cerebral cortex, Membrane. The following applies: Not Active = under 50% inhibition at 10 µM.
Test [5] concerns the target T1, Thromboxane-A synthase (Homo sapiens, UniProt P24557).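 Further: enzyme inhibition assay with PGH2 supplied as substrate; in other assays of this panel Not Active means under 50% inhibition at 10 µM.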
T1 sequence (P24557 whole entry): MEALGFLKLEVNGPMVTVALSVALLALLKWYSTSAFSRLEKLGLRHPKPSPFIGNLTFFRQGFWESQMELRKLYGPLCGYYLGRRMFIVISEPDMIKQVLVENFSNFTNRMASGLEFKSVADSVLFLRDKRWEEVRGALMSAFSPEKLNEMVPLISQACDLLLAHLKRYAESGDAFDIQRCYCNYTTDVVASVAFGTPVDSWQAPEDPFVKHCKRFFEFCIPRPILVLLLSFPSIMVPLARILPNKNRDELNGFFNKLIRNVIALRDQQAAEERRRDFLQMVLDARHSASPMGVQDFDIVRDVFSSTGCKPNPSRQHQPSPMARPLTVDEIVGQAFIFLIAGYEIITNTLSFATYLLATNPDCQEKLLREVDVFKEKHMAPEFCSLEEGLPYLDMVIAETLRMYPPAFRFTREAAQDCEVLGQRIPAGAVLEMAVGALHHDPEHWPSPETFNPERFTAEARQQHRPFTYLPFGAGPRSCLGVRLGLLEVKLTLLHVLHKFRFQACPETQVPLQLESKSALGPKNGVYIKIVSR
Nature of the test: biochemical. The conditions noted are these: platelet. The class given is tissue-based, Platelet.

Test [6] is described as follows: DRUGMATRIX: GABAA, Muscimol, Central radioligand binding (ligand: [3H] Muscimol). It counts as cell membranes, Rattus norvegicus, Wistar, Brain, Membrane. The following applies: Not Active = under 50% inhibition at 10 µM.
Test [7] addresses T2, Nitric oxide synthase, inducible (Mus musculus, UniProt P29477).
T2 sequence (P29477 whole entry): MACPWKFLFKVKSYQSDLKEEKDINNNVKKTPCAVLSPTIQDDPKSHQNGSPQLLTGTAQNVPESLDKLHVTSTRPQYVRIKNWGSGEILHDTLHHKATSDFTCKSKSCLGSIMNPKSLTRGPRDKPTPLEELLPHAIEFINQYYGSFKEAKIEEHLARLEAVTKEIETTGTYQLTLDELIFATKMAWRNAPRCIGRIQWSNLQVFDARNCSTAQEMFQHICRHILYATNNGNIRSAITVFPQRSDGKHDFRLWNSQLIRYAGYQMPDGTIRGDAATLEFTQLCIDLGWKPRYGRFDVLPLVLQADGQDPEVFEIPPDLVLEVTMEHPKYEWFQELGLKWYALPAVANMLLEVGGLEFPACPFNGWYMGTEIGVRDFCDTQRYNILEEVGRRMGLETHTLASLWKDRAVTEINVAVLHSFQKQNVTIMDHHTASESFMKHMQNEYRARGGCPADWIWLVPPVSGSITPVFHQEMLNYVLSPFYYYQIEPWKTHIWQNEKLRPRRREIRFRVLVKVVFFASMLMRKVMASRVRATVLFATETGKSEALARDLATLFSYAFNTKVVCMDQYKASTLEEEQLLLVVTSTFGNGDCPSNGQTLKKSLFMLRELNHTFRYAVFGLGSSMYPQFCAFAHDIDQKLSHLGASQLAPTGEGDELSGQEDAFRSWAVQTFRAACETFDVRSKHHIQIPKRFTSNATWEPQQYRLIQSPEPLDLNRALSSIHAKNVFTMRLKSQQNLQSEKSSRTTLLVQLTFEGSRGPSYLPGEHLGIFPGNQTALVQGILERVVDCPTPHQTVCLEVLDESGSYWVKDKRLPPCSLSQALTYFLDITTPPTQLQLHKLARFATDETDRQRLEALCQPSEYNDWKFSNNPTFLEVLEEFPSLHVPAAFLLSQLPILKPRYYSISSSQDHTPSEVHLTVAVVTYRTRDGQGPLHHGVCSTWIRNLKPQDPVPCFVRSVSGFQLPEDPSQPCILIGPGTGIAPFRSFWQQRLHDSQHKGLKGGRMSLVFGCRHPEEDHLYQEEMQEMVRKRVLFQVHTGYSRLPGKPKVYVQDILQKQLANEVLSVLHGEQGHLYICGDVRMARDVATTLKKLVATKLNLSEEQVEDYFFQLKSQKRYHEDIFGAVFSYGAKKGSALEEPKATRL
Also on record: species or system Escherichia coli.

The target of test [8] is T3, Neuropeptide Y receptor type 1 (Homo sapiens, UniProt P25929). Further: in other assays of this panel Not Active means under 50% inhibition at 10 µM.
T3 sequence (P25929 whole entry): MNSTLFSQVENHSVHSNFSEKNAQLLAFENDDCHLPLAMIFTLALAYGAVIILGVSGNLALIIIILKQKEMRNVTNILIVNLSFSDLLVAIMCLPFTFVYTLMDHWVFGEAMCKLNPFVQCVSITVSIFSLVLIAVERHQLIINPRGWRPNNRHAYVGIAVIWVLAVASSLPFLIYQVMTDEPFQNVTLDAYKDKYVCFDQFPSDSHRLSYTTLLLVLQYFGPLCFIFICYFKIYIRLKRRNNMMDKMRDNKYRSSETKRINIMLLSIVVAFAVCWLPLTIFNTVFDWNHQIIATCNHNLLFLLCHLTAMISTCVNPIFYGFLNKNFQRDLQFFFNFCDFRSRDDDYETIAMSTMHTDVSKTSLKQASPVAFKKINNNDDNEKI
It counts as cell membranes, Membrane. The following applies: sk-n-mc.

Each structure is given as a SMILES string.

Chain of D(3) dopamine receptor (P35462 whole entry): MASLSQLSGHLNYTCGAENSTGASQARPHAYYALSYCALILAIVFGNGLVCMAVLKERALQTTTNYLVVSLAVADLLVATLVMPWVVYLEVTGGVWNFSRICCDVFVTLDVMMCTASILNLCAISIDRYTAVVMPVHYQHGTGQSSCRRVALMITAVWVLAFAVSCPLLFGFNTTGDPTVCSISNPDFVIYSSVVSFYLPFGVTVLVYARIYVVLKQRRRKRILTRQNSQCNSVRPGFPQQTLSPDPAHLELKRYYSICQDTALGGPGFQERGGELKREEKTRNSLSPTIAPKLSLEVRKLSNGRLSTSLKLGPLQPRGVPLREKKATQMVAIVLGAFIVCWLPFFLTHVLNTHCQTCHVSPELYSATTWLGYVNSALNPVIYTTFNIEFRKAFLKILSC
Chain of Beta-2 adrenergic receptor (P07550 whole entry): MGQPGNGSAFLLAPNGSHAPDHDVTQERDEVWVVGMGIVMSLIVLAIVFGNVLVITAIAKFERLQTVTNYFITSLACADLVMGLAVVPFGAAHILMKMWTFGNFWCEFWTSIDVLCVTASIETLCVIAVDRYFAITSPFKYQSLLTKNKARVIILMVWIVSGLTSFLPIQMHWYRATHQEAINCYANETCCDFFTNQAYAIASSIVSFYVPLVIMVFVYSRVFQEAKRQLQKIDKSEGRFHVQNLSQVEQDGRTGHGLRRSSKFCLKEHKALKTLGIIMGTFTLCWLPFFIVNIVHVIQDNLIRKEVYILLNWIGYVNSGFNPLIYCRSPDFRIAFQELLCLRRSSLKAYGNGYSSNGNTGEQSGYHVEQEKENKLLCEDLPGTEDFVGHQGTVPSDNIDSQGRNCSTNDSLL
Chain of Substance-P receptor (P25103 whole entry): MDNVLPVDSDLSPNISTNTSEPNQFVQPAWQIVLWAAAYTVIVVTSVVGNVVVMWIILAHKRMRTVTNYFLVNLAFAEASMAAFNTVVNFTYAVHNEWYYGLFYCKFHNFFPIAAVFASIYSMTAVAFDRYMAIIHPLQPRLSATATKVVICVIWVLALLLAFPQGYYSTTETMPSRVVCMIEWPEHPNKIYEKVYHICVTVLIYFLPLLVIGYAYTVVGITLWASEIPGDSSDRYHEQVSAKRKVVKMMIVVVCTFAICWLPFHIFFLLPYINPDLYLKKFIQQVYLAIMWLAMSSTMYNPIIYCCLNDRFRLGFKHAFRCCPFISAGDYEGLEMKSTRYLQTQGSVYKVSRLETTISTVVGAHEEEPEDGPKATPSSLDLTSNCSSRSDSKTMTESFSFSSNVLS

As a reminder, the IC50 is the concentration that inhibits the measured activity by half. Usually Ki stands for a measure of affinity in units of concentration, obtained from inhibition or displacement. `CC[C@H]1OC(=O)[C@H](C)[C@@H](O[C@H]2C[C@@](C)(OC)[C@@H](O)[C@H](C)O2)[C@H](C)[C@@H](O[C@@H]2O[C@H](C)C[C@H](N(C)C)[C@H]2O)[C@](C)(O)C[C@@H](C)CN(C)[C@H](C)[C@@H](O)[C@]1(C)O` [AZITHROMYCIN]: the IC50 entry in test [1], in test [2], in test [3] (cho), in test [4], in test [5] and in test [6] was “Not Active” each time. Also, the IC50 result in test [7] and in test [8] was “Not Active” each time. For the same compound, the Ki result in test [4] and in test [6] was “Not Active” throughout.
For the compound `CC(C)(C)c1ccc(S(=O)(=O)/C=C/C#N)cc1` [BAY-11-7085], the IC50 entry is “Not Active” in test [1]; “Not Active” in test [2]; 3460 nM in test [3] (read-out: IC50); “Not Active” in test [4]; “Not Active” in test [5]; “Not Active” in test [6]. The IC50 entry in test [7] and in test [8] was “Not Active” each time. The Ki in test [3] was 1170 nM; in test [4] it was “Not Active”; in test [6], “Not Active”.
Take `CCc1oc2ccccc2c1C(=O)c1cc(Br)c(O)c(Br)c1` [BENZBROMARONE]: the IC50 result in test [1], in test [2], in test [3] (cho), in test [4], in test [5] and in test [6] was “Not Active” each time. Moreover, the IC50 entry in test [7] and in test [8] was “Not Active” in each case. Further, the Ki result in test [4] and in test [6] was “Not Active” in each case.
On to `O=c1cc(-c2ccccc2)oc2ccc3ccccc3c12` [BETA-NAPHTHOFLAVONE], for which the IC50 result in test [1], in test [2], in test [3] (cho), in test [4], in test [5] and in test [6] was “Not Active” each time. In addition, the IC50 result in test [7] and in test [8] was “Not Active” throughout. Besides, the inhibition constant Ki entry in test [4] and in test [6] was “Not Active” in each case.
As for `CC(C)C[C@H]1C(=O)N2CCC[C@H]2[C@]2(O)O[C@](NC(=O)[C@@H]3C=C4c5cccc6[nH]c(Br)c(c56)C[C@H]4N(C)C3)(C(C)C)C(=O)N12` [BROMOCRIPTINE], the IC50 entry in test [1] was “Not Active”; in test [2] it was “Not Active”; in test [3] (read-out: IC50) it was 0.596 nM; in test [4], “Not Active”; in test [5], “Not Active”; in test [6] it was “Not Active”. Also, the IC50 result in test [7] and in test [8] was “Not Active” throughout. The Ki was 0.202 nM in test [3], “Not Active” in test [4] and “Not Active” in test [6].
For `CS(=O)(=O)OCCCCOS(C)(=O)=O` [BUSULFAN], the IC50 entry in test [1], in test [2], in test [3] (cho), in test [4], in test [5] and in test [6] was “Not Active” in each case. In addition, the IC50 result in test [7] and in test [8] was “Not Active” each time. Besides, the Ki result in test [4] and in test [6] was “Not Active” in each case.
Regarding `O=C(/C=C/c1ccc(O)c(O)c1)OCCc1ccccc1` [CAFFEIC ACID PHENETHYL ESTER], the IC50 result in test [1], in test [2], in test [3] (cho), in test [4], in test [5] and in test [6] was “Not Active” throughout. The IC50 result in test [7] and in test [8] was “Not Active” throughout. In addition, the Ki entry in test [4] and in test [6] was “Not Active” each time.
Regarding `COc1cc(CNC(=O)CCCC/C=C/C(C)C)ccc1O` [CAPSAICIN], the IC50 entry in test [1], in test [2], in test [3] (cho), in test [4], in test [5] and in test [6] was “Not Active” each time. Moreover, the IC50 entry in test [7] and in test [8] was “Not Active” in each case. In addition, the Ki result in test [4] and in test [6] was “Not Active” in each case.
With `NC(=O)N1c2ccccc2C=Cc2ccccc21` [CARBAMAZEPINE], the IC50 result in test [1], in test [2], in test [3] (cho), in test [4], in test [5] and in test [6] was “Not Active” throughout. Besides, the IC50 entry in test [7] and in test [8] was “Not Active” each time. Besides, the Ki entry in test [4] and in test [6] was “Not Active” throughout.
With `CCOC(=O)n1ccn(C)c1=S` [CARBIMAZOLE], the IC50 result in test [1], in test [2], in test [3] (cho), in test [4], in test [5] and in test [6] was “Not Active” each time. Also, the IC50 result in test [7] and in test [8] was “Not Active” in each case. The Ki result in test [4] and in test [6] was “Not Active” each time.
For `Oc1ccccc1O` [CATECHOL], the IC50 result in test [1], in test [2], in test [3] (cho), in test [4], in test [5] and in test [6] was “Not Active” throughout. The IC50 entry in test [7] and in test [8] was “Not Active” in each case. Also, the Ki result in test [4] and in test [6] was “Not Active” each time.
As to `CO[C@@]1(NC(=O)CSCC#N)C(=O)N2C(C(=O)O)=C(CSc3nnnn3C)CS[C@@H]21` [CEFMETAZOLE], the IC50 entry in test [1], in test [2], in test [3] (cho), in test [4], in test [5] and in test [6] was “Not Active” in each case. For the same compound, the half-maximal inhibitory concentration (IC50) result in test [7] and in test [8] was “Not Active” each time. For the same compound, the Ki entry in test [4] and in test [6] was “Not Active” throughout.
For the compound `CN(C(=O)CCCOc1ccc2[nH]c(=O)ccc2c1)C1CCCCC1` [CILOSTAMIDE], the IC50 entry in test [1], in test [2], in test [3] (cho), in test [4], in test [5] and in test [6] was “Not Active” throughout. The IC50 result in test [7] and in test [8] was “Not Active” throughout. Moreover, the Ki entry in test [4] and in test [6] was “Not Active” throughout.
